Measurements from patent publication US20220170911A1, “CELL CONSTRUCT AND CELL CONSTRUCT PRODUCTION METHOD” (priority 2019, published 2022).

Experiments:
Assay type in all cases: cell-based, human
[1] = system: tissue product including no vascular endothelial cell; assay: Evaluation of release of glucose and fatty acid taken up, with release promoter; conditions: 2 mM isoproterenol, then 30 minutes incubation, day 14 tissue product
Description: A tissue product was produced in the same manner as for the cell structure in Test Example 10, except that no vascular endothelial cell was included, and evaluation was carried out with the tissue product on day 14 after the beginning of formation thereof.
In order to measure the amount of release of glucose once taken up, incubation was performed on DMEM culture medium supplemented with 0.1 mg/mL NBD-modified glucose as in Test Example 10 for 60 minutes, and then the culture medium was substituted again with 300 μL of DMEM culture medium supplemented with NBD-modified glucose, or with 300 μL of DMEM culture medium supplemented with 2 mM isoproterenol and NBD-modified glucose. Thereafter, incubation was performed for 30 minutes to allow glucose to be released from the cellular tissue, and fluorescence measurement was carried out. […]
The number of samples for each treatment was 5 […], fluorescence intensity for the tissue product with the culture medium containing no isoproterenol was defined as 100%, and what % of the amount of uptake was released was determined by comparing with fluorescence intensity for the tissue product with the culture medium containing isoproterenol. […]

[2] = system: tissue product including no vascular endothelial cell; assay: Evaluation of glucose uptake (NBD-modified glucose fluorescence) with uptake inhibitor and promoter; conditions: 125 μM apigenin and/or 10 μg/mL insulin in DMEM with 0.1 mg/mL NBD-modified glucose; day 7 tissue product; 20-135 minutes; control medium defined as 100%; FIG. 16/17(a)
Description: A cell structure provided with a vascular network was produced with the same procedure as in Test Example 2, except that 6500 cells of mature adipocytes, 5500 cells of adipose stem cells, 2750 cells of vascular endothelial cells, 0.025 mg of the defibered collagen component (sCMF), 0.015 mg of fibrinogen, and 0.007 U of thrombin were used per tissue. The materials were prepared for 96 wells all at once to afford a gel, which was seeded on each well of a 96-well plate. […] The cell structures were incubated, and fluorescence measurement was carried out after 10 minutes, 30 minutes, 60 minutes, 120 minutes, and 150 minutes. Before the measurement at each timing, the culture medium for a cell structure to be subjected to measurement was substituted with 300 μL of PBS buffer, and the fluorescence was measured with a plate reader (Synergy HTX, manufactured by BioTek Instruments, Inc.) to determine the cumulative value of fluorescence intensity in the image. […] The tissue product was incubated, and fluorescence measurement was carried out after 20 minutes, 45 minutes, 70 minutes, 90 minutes, and 135 minutes in the same manner as in Test Example 10. […]

[3] = system: tissue product including no vascular endothelial cell; assay: Evaluation of fatty acid uptake (BODIPY-modified fatty acid fluorescence) with uptake promoter; conditions: 10 μg/mL insulin in DMEM with 4 μM BODIPY-modified fatty acid; day 7 tissue product; 5, 30, 60 minutes; control without insulin defined as 100%; FIG. 17(b)
Description: A tissue product including no vascular endothelial cell was produced in the same manner as in Test Example 10, and evaluation was carried out with the tissue product on day 7 after the beginning of formation thereof sCMF produced by using a mixture of a sponge fragment of porcine skin-derived collagen I and a sponge fragment of porcine skin-derived collagen III was used.
A tissue product was incubated in the same manner as in Test Example 10, except that, in place of NBD-modified glucose in Test Example 10, 4 μM BODIPY-modified fatty acid (Invitrogen (R) BODIPY (R) 500/510 Cl, C12 (4,4-Difluoro-5-Methyl-4-Bora-3a,4a-Diaza-s-Indacene-3-Dodecanoi c Acid), Thermo Fisher Scientific) was added to DMEM culture medium, and fluorescence measurement was carried out after 5 minute, 30 minutes, and 60 minutes. Further, 10 μg/mL insulin was added to the DMEM culture medium containing 4 μM BODIPY-modified fatty acid, and fluorescence measurement was carried out in the same manner.
The number of samples for each treatment was 5 (n=5), and fatty acid uptake in the same control culture medium as in Test Example 10, which contained no insulin, was defined as 100%.

[4] = system: cell structure including vascular endothelial cells and tissue product including no vascular endothelial cell; assay: Evaluation of effect of uptake inhibitor for fatty acid (BODIPY-modified fatty acid fluorescence); conditions: 100 ng/mL TNFα in DMEM with 4 μM BODIPY-modified fatty acid; day 14; 0, 5, 30, 60 minutes; with and without vascular endothelial cells; control without TNFα defined as 100%; FIG. 18
Description: A cell structure including vascular endothelial cells and a tissue product including no vascular endothelial cell were produced in the same manner as in Test Example 10, and evaluation was carried out with the cell structure and tissue product on day 14 after the beginning of formation thereof sCMF produced by using a sponge fragment of porcine skin-derived collagen I was used.
Into DMEM culture medium containing 4 μM BODIPY-modified fatty acid in place of NBD-modified glucose in (Evaluation of Glucose Uptake) of Test Example 10, 100 ng/mL TNFα as an uptake inhibitor for fatty acid was introduced. The cell structure including vascular endothelial cells and the tissue product including no vascular endothelial cell were each incubated, and fluorescence measurement was carried out after 0 minutes, 5 minutes, 30 minutes, and 60 minutes in the same manner as in Test Example 10. The number of samples for each treatment was 5 (n=5), and fatty acid uptake in the same control culture medium as in Test Example 10, which contained no TNFα, was defined as 100%.

Compound: CC(C)NCC(O)c1ccc(O)c(O)c1 (stereo not drawn) [isoproterenol]
- release of fatty acid taken up ([1]; 60 minutes uptake of BODIPY-modified fatty acid, FIG. 19(b)): promoted
- release of glucose taken up ([1]; 60 minutes uptake of NBD-modified glucose, FIG. 19(a)): promoted

Compound: O=c1cc(-c2ccc(O)cc2)oc2cc(O)cc(O)c12 [apigenin]
- amount of uptake of glucose [2]: reduced

Compound: Insulin from bovine pancreas
- amount of uptake of glucose [2]: increased
- amount of fatty acid uptake [3]: promoted

Compound: TNFα
- amount of uptake of fatty acid [4]: reduced
